Experimental data taken from patent US20070178439A1, “Control of es cell self renewal and lineage specification, and medium therefor” (priority 2003, published 2007).
“Also recorded” adds a separate entry of the source.

What was measured:
Format in all cases: cell-based, mouse
ES cells = test: ES cell self-renewal versus differentiation in serum-free N2B27 adherent culture with passaging; conditions: for ES cell self-renewal / differentiation: N2B27 serum-free, factor(s) as labelled; for ES cell self-renewal with TGF-β superfamily ligand or other factor in place of BMP4: N2B27, in the presence of LIF
Method: (§1) ES cells were maintained without feeder cells. For serum-free culture, ES cells were plated onto gelatin-coated plates in N2B27 medium (Ying and Smith, 2003) supplemented with 10 ng/ml LIF (Sigma) and 10 ng/ml BMP4 or 200 ng/ml GDF6 (R&D Systems). Cells were passaged every 2-4 days using either enzyme-free Cell Dissociation Buffer (Invitrogen) or 0.025% trypsin/1% chicken serum. Dissociated cells were harvested in N2B27 and pelleted. Supernatant was aspirated and the cell pellet resuspended in N2B27 and replated directly. For single cell cloning, a finely drawn Pasteur pipette pre-loaded with N2B27 was used to pick individual cells into 10 μl drops. Drops were then singly transferred to 96-well plates pre-loaded with 150 μl N2B27 per well with LIF or LIF plus BMP4. After 8 days, ES cell colonies were identified and passaged. To produce chimaeras, ES cells were injected into C57Bl/6 blastocysts. Germline transmission was tested by mating male chimaeras with C57Bl/6 females.

Id1 Transfectants = test: Propagation of single ES cells in serum-free medium (single cell cloning), Id1 transfectants
Description: Under these conditions the transfectants were not overtly different from parental ES cells or empty vector transfectants. In contrast, in serum-free N2B27, Id transfectants whilst remaining LIF-dependent, were liberated from requirement for BMP. These cells proliferated in LIF alone as rapidly and with as little differentiation as parental ES cells in LIF plus BMP. The cultures could be passaged multiple times with no change in undifferentiated morphology or factor dependence. The ES cell phenotype was confirmed by expression of Oct4 and Nanog mRNAs (FIG. 4D). As a rigorous test of the capacity of Id expression to substitute for serum or BMP/GDF, we plated single cells in N2B27.
as §1

Id genes = test: Gene induction in Oct4-selected ES cells (LightCycler RT-PCR, Northern hybridisation); conditions: overnight in N2B27, then stimulated 45 minutes
Method: (§2) Oct4GiP ES cells (Ying et al., 2002) were cultured in the presence of puromycin for 4-6 days to eliminate differentiated cells. Purified ES cells were cultured in complete medium plus LIF for 24 hours then washed once with PBS and transferred to N2B27 medium overnight prior to stimulation for 45 min. with 20 ng/ml LIF, 50 ng/ml BMP4, LIF plus BMP4, 10 ng/ml TGF-β1 (all R&D Systems) or 15% FCS. Quantitative RT-PCR was carried out using the LightCycler Instrument (Roche). Data were normalised relative to Oct4 amplification. Primer pairs and reaction conditions are available upon request. Northern hybridizations were carried out on 5 μg aliquots of total RNA.

STAT3 = test: Immunoblot of STAT3 tyrosine 705 phosphorylation in ES cells
Method: (§3) Pre-selected Oct4GiP ES cells were transferred to N2B27 medium overnight prior to stimulation with LIF (20 ng/ml), BMP4 (50 ng/ml) or LIF plus BMP4 for 15 min or 1 hour. Phosphorylated stat3, smad1, erk1/2 and p38 were detected by immunoblotting (Cell Signaling Technology). Cell lysis and immunoprecipitation (Nakashima et al., 1997) employed anti-FLAG (Sigma) or anti-Stat3 (Transduction Labs). Immunostaining was performed as described (Ying et al., 2003)

Smad1 = test: Immunoblot of active serine phosphorylated Smad1 in undifferentiated ES cells; conditions: 15 min or 1 hour stimulation
Method: as §3

[1] = test system: tis11, c-fos, junB, socs3; test: Induction of known LIF target genes in Oct-selected ES cells (real time RT-PCR); conditions: 45 min stimulation
Method: as §2

[2] = test system: p38 and erk mitogen-activated protein kinases; test: Immunoblot of p38 and erk activation in undifferentiated ES cells
Method: as §3

[3] = test system: blastocysts / inner cell masses; test: Derivation of ES cells from blastocysts in serum free medium; conditions: ICM dissociated after 4 days of blastocyst culture in LIF only, BMP4 added on replating
Description: We investigated whether the response to BMP may be an adaptation of established ES cells to culture or is manifest during the initial stages of ES cell derivation. We plated blastocysts in N2B27 supplemented with BMP plus LIF. After several days expanded inner cell masses (ICMs) were dissociated and replated in the same culture conditions. […] Therefore we subsequently dissociated the ICM after only 4 days of blastocyst culture in LIF only and added BMP4 on replating. […] These could be passaged and expanded as morphologically undifferentiated ES cells. One line (SF1) was characterised further. Upon withdrawal of LIF and BMP, SF1 ES cells underwent neural differentiation in vitro. Moreover, SF1 cells produced extensively chimaeric mice (FIG. 2F). Twelve chimaeras were all male, indicative of sex conversion by highly contributing XY ES cells (Bradley et al., 1984).
Strain 129 mice were ovariectomised on the third day of pregnancy and embryos in diapause flushed 4 days later (Nichols et al., 1990). Intact blastocysts were plated on gelatin-coated plastic in N2B27 supplemented with LIF (10 ng/ml). After 3-6 days the central mass of each explant was picked, rinsed in PBS and placed in a drop of trypsin for a few minutes. […]

[4] = Id1 transfectants, single cells, N2B27 serum-free

Which results are given for `C[S+]([O-])c1ccc(-c2nc(-c3ccncc3)c(-c3ccc(F)cc3)[nH]2)cc1` (stereo not drawn) [SB203580, reference compound]?
Effect of p38 inhibitor on balance of self-renewal and neural differentiation in LIF only (ES cells; 30 μM, N2B27): does not suppress; also recorded: did not alter the balance between self-renewal and neural differentiation; Effect of p38 inhibitor on self-renewal in LIF plus BMP (ES cells; 30 μM, N2B27): does not suppress; also recorded: no noticeable effect; Overall cell viability in LIF only (ES cells; N2B27): appeared to enhance overall cell viability

For “LIF: gp130 receptor binding cytokine, Leukaemia Inhibitory Factor”, which “ES cell self-renewal / differentiation” value (ES cells) is on record?
The value was “reduces but does not eliminate neural differentiation”.

What about the “Passages after which number of undifferentiated ES cells began to decline” value (ES cells; successive passaging in N2B27) of the same molecule?
The value was 2-3 passages.

What about the “Number of colonies expanded” value (Id1 Transfectants; [4]) of the same molecule?
The value was 16.

And the “Number of colonies formed at day 8” value (Id1 Transfectants; [4])?
Its value is 19.

And the “Frequency of undifferentiated passageable colony formation from single cells” value (Id1 Transfectants; Id transfectants, N2B27)?
Its value is 10%.

With “TGF-β1: TGF-β superfamily member, not a BMP receptor ligand” as the molecule, how does the “Id gene (Id1, Id2, Id3) mRNA induction” value (Id genes) read?
The value was “Neither activin (data not shown) nor TGF-β1 induce Id gene expression”.

What about the “ES cell self-renewal with TGF-β superfamily ligand or other factor in place of BMP4” value (“ES cell self-renewal … of BMP4” below) (ES cells) of the same molecule?
Its value is “no discernible effect on ES cells”.

Which results are given for activin?
Id gene (Id1, Id2, Id3) mRNA induction (Id genes): Neither activin (data not shown) nor TGF-β1 induce Id gene expression; ES cell self-renewal with TGF-β superfamily ligand or other factor in place of BMP4 (ES cells): increased viability and/or proliferation but did not suppress differentiation

fibronectin was tested. Which “Id gene (Id1, Id2, Id3) mRNA induction” value (Id genes) did it give?
The value was “induced by foetal calf serum and by fibronectin, although to a lesser extent than by BMP”.

What about the “Passages over which undifferentiated Oct4-GiP cells could be expanded” value (ES cells; N2B27, in combination with LIF) of the same molecule?
The value was “at least 10 passages”.

And the “ES cell self-renewal … of BMP4” value (ES cells)?
The value was “more differentiation and slower population expansion than in BMP”.

B1: GDF-6: BMP relative growth and differentiation factor-6 (protein, UniProt Q6KF10 336-455, looked up)
Growth/differentiation factor …: TAFASRHGKRHGKKSRLRCSKKPLHVNFKELGWDDWIIAPLEYEAYHCEGVCDFPLRSHLEPTNHAIIQTLMNSMDPGSTPPSCCVPTKLTPISILYIDAGNNVVYKQYEDMVVESCGCR
How did the “Id gene (Id1, Id2, Id3) mRNA induction” value (Id genes) turn out when B1 was run?
The value was “strongly induced”.

What about the “ES cell self-renewal … of BMP4” value (ES cells) of the same molecule?
Its value is “similarly supported ES cell self-renewal”.

B2: BMP4: BMP receptor ligand, agonist of the TGF-β superfamily signalling pathway (protein, UniProt P12644 293-408, looked up)
Bone morphogenetic protein 4: SPKHHSQRARKKNKNCRRHSLYVDFSDVGWNDWIVAPPGYQAFYCHGDCPFPLADHLNSTNHAIVQTLVNSVNSSIPKACCVPTELSAISMLYLDEYDKVVLKNYQEMVVEGCGCR
Which “Id gene (Id1, Id2, Id3) mRNA induction” value (Id genes) does the source give for B2 here?
The value was “strongly induced”.

What about the “STAT3 activation (phosphorylation of tyrosine 705)” value (STAT3; BMP alone) of the same molecule?
The value was “does not activate STAT3”.

And the “STAT3 activation by LIF in presence of BMP” value (STAT3; LIF plus BMP)?
The value was “Nor does it increase STAT3 activation by LIF”.

What about the “Phosphorylation of Smad1” value (Smad1) of the same molecule?
The value was “Increased phosphorylation of Smad1”.

And the “ES cell self-renewal / differentiation” value (ES cells)?
Its value is “differentiation into sheets of flattened epithelial-like cells”.

And the “Induction of junB and socs3 mRNA” value [1]?
Its value is “more highly induced by LIF in the presence of BMP”.

What about the “Induction of tis11 and c-fos mRNA” value [1] of the same molecule?
Its value is “showed no response to BMP”.

And the “Erk activation in response to LIF in presence of BMP” value ([2]; LIF plus BMP)?
The value was “not appreciably inhibited”.

What about the “Activation of p38 and erk” value ([2]; undifferentiated ES cells, 15 min or 1 hour stimulation) of the same molecule?
The value was “enhances the basal activation of p38 and, by one hour, of erk”.

What about the “Formation of primary ES cell colonies” value [3] of the same molecule?
Its value is “primary ES cell colonies did form”.
